Parameters in all cases: key: ‘X’ means highly active; ‘+’ means moderately active; ‘−’ means low activity
One experiment relates to Aphis gossypii. Kind of experiment: Soil drench test (systemic activity), aphids on cotton plants. The class given is in vivo. As to conditions: 10.0 ppm soil concentration by weight, aphid counts at 5 DAT vs untreated control. An excerpt: (§1) The Soil Drench Test (Systemic Activity) Cotton and sorghum plants were established in pots. One day prior to treatment, each pot was infested with about 25 aphids of a mixed population. Cotton plants were infested with aphids and sorghum plants were infested with the greenbug. The selected compound of formula (I) was applied to the soil surface in a dilution that delivered the equivalent of 10.0 ppm soil concentration by weight. Aphid counts were obtained at 5 DAT (=days after treatment). The number of aphids on the treated plants was compared to the number of those on the untreated control plants.

The next experiment has as its system Schizaphis graminum. Kind of experiment: Soil drench test (systemic activity), greenbug on sorghum plants. It counts as in vivo. As to conditions: 10.0 ppm soil concentration by weight, counts at 5 DAT vs untreated control.
From the text: as §1

A further experiment concerns Musca domestica. Kind of experiment: Housefly bait/contact test. The class given is in vivo. The note with it: 50 ppm in sugar water bait solution, adult houseflies, mortality after 24 hours. An excerpt: The Housefly Bait/Contact Test About 25 four to six-day-old adult houseflies were anesthetized and placed in a cage with a sugar water bait solution containing the compound. The concentration of the selected compound of formula (I) in the bait solution was 50 ppm.

In the next experiment the test system is A. gossypii. Kind of experiment: Foliar application (contact test) with aphids. The class given is in vivo, Aphis gossypii. As to conditions: 100 ppm formulation sprayed to runoff on aphid-infested cotton plants, dead aphids counted three days after treatment. An excerpt:
Foliar Application (Contact Test) with Aphids Aphid-infested cotton plants were placed on a revolving turntable, and sprayed to runoff with a 100 ppm formulation of the selected compound of formula (I). The treated, A. gossypii-infested plants were held for three days after treatment, after which the dead aphids were counted.

On to `C[S+]([O-])c1c(C2(C)SCC[S+]2[O-])nn(-c2c(Cl)cc(C(F)(F)F)cc2Cl)c1N` (stereo not shown) [Compound 20], for which the “Systemic activity on aphids” value in the experiment on Aphis gossypii is given as “−”. Further, in the experiment with Schizaphis graminum, the “Systemic activity on greenbugs” value was “−”. Further, in the experiment on Musca domestica, the “Activity on house flies by contact” value is recorded as “X”. Besides, the “Foliar activity on aphids” value in the experiment with A. gossypii is “−”.

For `COC(C)(OC)c1nn(-c2c(Cl)cc(C(F)(F)F)cc2Cl)c(N)c1[S+](C)[O-]` (stereo not shown) [Compound 2], the “Systemic activity on aphids” value with Aphis gossypii is “+”. In addition, the “Systemic activity on greenbugs” value with Schizaphis graminum is “X”. For the same compound, the “Activity on house flies by contact” value in the experiment on Musca domestica is given as “X”. For the same compound, the “Foliar activity on aphids” value in the experiment with A. gossypii is recorded as “X”.

For `C[S+]([O-])c1c(C2(C)SCCS2)nn(-c2c(Cl)cc(C(F)(F)F)cc2Cl)c1N` (stereo not shown) [Compound 18], the “Systemic activity on aphids” value with Aphis gossypii is listed as “−”. Also, in the experiment with Schizaphis graminum, the “Systemic activity on greenbugs” value is listed as “+”. Further, in the experiment on Musca domestica, the “Activity on house flies by contact” value is given as “X”. In addition, in the experiment with A. gossypii, the “Foliar activity on aphids” value is “X”.

Take `CSc1c(C2(C)OCC(C)O2)nn(-c2c(Cl)cc(C(F)(F)F)cc2Cl)c1N` (stereo not shown) [Compound 4]: in the experiment on Aphis gossypii, the “Systemic activity on aphids” value is “X”. Moreover, the “Systemic activity on greenbugs” value in the experiment with Schizaphis graminum was “X”. For the same compound, the “Activity on house flies by contact” value with Musca domestica was “X”. The “Foliar activity on aphids” value in the experiment on A. gossypii is recorded as “X”.

In the case of `CSc1c(C2(C)SCC[S+]2[O-])nn(-c2c(Cl)cc(C(F)(F)F)cc2Cl)c1N` (stereo not shown) [Compound 19], the “Systemic activity on aphids” value with Aphis gossypii is listed as “−”. The “Systemic activity on greenbugs” value in the experiment on Schizaphis graminum is listed as “+”. Also, in the experiment on Musca domestica, the “Activity on house flies by contact” value is given as “X”. In addition, the “Foliar activity on aphids” value in the experiment on A. gossypii is given as “X”.

As to `CC1(c2nn(-c3c(Cl)cc(C(F)(F)F)cc3Cl)c(N)c2S(C)(=O)=O)OCC(CO)O1` (stereo not shown) [Compound 7], the “Systemic activity on aphids” value in the experiment on Aphis gossypii is on record as “X”. Moreover, the “Systemic activity on greenbugs” value in the experiment with Schizaphis graminum is “X”. Moreover, in the experiment on Musca domestica, the “Activity on house flies by contact” value is on record as “+”. Moreover, the “Foliar activity on aphids” value with A. gossypii is reported as “X”.

`C[S+]([O-])c1c(C2(C)NCCS2)nn(-c2c(Cl)cc(C(F)(F)F)cc2Cl)c1N` (stereo not shown) [Compound 15, 5-amino-1-[2,6-dichloro-4-(trifluoromethyl)phenyl]-3-(2-methylthiazolidine-2-yl)-4-methylsulfinyl-1H-pyrazole]: the “Systemic activity on aphids” value in the experiment with Aphis gossypii is reported as “X”. For the same compound, the “Systemic activity on greenbugs” value in the experiment on Schizaphis graminum is “X”. Moreover, the “Activity on house flies by contact” value in the experiment with Musca domestica is on record as “X”. The “Foliar activity on aphids” value in the experiment on A. gossypii is “−”.

For the origin of these results see US6395760B1, “Pesticidal 1-arylpyrazoles” (Rhone-Poulenc Inc., priority 1997, dated 2002).
